{"source": "paper PMC3743924", "about": "(The Biochemical journal, 2013)", "key": {"APH(3')-Ia [1]": {"molecular_target": "T1, APH(3')-Ia (Escherichia coli, UniProt P00551)", "T1 sequence (P00551 whole entry)": "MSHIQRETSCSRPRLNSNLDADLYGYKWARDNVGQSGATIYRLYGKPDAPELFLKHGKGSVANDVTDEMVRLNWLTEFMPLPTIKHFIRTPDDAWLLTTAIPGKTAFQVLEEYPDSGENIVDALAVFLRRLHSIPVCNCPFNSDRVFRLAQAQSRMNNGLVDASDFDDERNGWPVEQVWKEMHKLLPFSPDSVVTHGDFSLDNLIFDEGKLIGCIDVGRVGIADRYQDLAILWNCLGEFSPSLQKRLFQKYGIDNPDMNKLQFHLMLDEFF", "conditions": "Ca2+ complex; nucleotide site"}, "APH(3')-Ia [2]": {"molecular_target": "T1, APH(3')-Ia", "assay": "activity assay with kanamycin", "format": "biochemical", "conditions": "co-substrate kanamycin; constants unpublished"}, "APH(3')-Ia [3]": {"molecular_target": "T1, APH(3')-Ia", "assay": "X-ray crystal structure, […]-2.[…] A", "format": "binding", "conditions": "ternary complex with kanamycin; ATP site; pH 4.5"}}}
{"smiles": "Nc1ncnc2c1ncn2[C@@H]1O[C@H](COP(=O)(O)OP(=O)(O)OP(=O)(O)O)[C@@H](O)[C@H]1O", "note": "[ATP]", "values": [{"measurement": "X-ray crystal structure, 2.3-2.4 A", "setting": "APH(3')-Ia [1]", "value": "unambiguous additional density corresponding to the ATP molecule"}]}
{"smiles": "Nc1nc2c(ncn2[C@@H]2O[C@H](COP(=O)(O)OP(=O)(O)OP(=O)(O)O)[C@@H](O)[C@H]2O)c(=O)[nH]1", "note": "[GTP]", "values": [{"measurement": "activity assay with kanamycin", "setting": "APH(3')-Ia [2]", "value": "indicating GTP is a superior substrate"}]}
{"smiles": "COc1cc2ncnc(Nc3cccc(Cl)c3)c2cc1OC", "note": "[Tyrphostin AG 1478, N-(3-chlorophenyl)-6,7-dimethoxyquinazolin-4-amine]", "values": [{"measurement": "X-ray crystal structure, 2.69-2.71 A", "setting": "APH(3')-Ia [3]", "value": "the inhibitor molecule was held in the NTP binding site through hydrophobic interactions"}]}
